Test results from patent US8889704B2 (Array BioPharma Inc., priority 2011, dated 2014).
Counter-ions that a name gives are not always drawn.

Key:
Assay type in all cases: biochemical
PIM-1 = PIM-1 (Homo sapiens, UniProt P11309); assay: Enzyme PIM-1 Assay ([33P]ATP incorporation into PIM2tide, filter plate); conditions: averaged IC50; 35 μM ATP, 7.5 μM PIM2tide, 0.25 nM PIM-1, 60 min at 22° C.
In short: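 Ten-point, 3-fold dilution series (10 μM top, 2% DMSO final) tested for inhibition of 33P transfer from 35 μM ATP to 7.5 μM PIM2tide by 0.25 nM PIM-1. Reaction 60 min, 22 °C, pH 7.4 MOPS/MgCl2 buffer; phosphocellulose capture, scintillation counting, IC50 where fitted POC equals 50.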

[1] = molecular target: T1, GST-tagged recombinant full-length human Pim-2 (Homo sapiens, UniProt Q9P1W9); assay: PIM-2 Assay (as Example A); conditions: averaged IC50; 4 μM ATP, 1.0 μM PIM2tide, 1.5 nM Pim-2
T1 construct: GST-tagged recombinant full-length human Pim-2; GST
In short: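 IC50 was derived by 4-parameter logistic fitting of percent-of-control data over a 10-point, 3-fold series (highest 10 μM, 2% DMSO). Reactions held 1.5 nM GST-Pim-2 (full-length, human), 4 μM [γ-33P]ATP and 1.0 μM PIM2tide for 60 min at 22 °C, pH 7.4; 33P-peptide captured on P81 filters.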

recombinant rat PIM-3 = recombinant rat PIM-3 (Rattus norvegicus, UniProt O70444); assay: PIM-3 Assay (as Example A); conditions: averaged IC50; 30 μM ATP, 3.75 μM PIM2tide, 0.5 nM PIM-3
In short: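 33P incorporation from 30 μM [γ-33P]ATP into 3.75 μM PIM2tide by 0.5 nM rat PIM-3, 60 min at 22 °C in pH 7.4 MOPS buffer, read by P81 filter capture and scintillation counting. Compounds tested in 3-fold dilutions up to 10 μM final, 2% DMSO; percent-of-control data fitted by 4-parameter logistic for IC50.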

Chain of PIM-1 (P11309 whole entry, species assumed): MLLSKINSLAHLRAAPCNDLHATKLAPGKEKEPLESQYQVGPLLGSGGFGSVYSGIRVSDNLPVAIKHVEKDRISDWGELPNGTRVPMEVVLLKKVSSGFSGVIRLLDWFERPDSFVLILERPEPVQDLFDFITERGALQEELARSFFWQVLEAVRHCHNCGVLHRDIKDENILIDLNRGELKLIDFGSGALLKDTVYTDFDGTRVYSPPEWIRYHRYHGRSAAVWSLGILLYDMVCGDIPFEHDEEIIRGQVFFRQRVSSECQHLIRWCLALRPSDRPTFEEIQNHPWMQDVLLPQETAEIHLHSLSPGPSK
T1 sequence (Q9P1W9 whole entry): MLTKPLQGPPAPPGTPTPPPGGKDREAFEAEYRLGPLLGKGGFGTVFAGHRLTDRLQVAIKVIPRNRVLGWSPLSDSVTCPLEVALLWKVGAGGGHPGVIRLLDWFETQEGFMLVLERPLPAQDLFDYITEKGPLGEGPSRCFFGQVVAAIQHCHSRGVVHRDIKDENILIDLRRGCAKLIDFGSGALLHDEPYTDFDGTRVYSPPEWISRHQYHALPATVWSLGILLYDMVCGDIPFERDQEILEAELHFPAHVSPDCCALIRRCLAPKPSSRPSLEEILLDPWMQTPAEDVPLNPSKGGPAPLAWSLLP

SMILES	IC50 (PIM-1)	IC50 [1]	IC50 (recombinant rat PIM-3)
CC(C)Oc1cccc2ccc(-c3nnc4ccc([C@@H](N5CC[C@](N)(CO)C5)C(F)(F)F)cn34)nc12 [Example 188, ((R)-3-amino-1-((R)-2,2,2-trifluoro-1-(3-(8-isopropoxyquinolin-2-yl)-[1,2,4]triazolo[4,3-a]pyridin-6-yl)ethyl)pyrrolidin-3-yl)methanol dihydrochloride]	0.3 nM	111 nM	1 nM
CC(C)(C)c1cccc2ccc(-c3nnc4ccc([C@@H](N5CC[C@](N)(CO)C5)C(F)(F)F)cn34)nc12 [Example 189, ((R)-3-amino-1-((R)-1-(3-(8-tert-butylquinolin-2-yl)-[1,2,4]triazolo[4,3-a]pyridin-6-yl)-2,2,2-trifluoroethyl)pyrrolidin-3-yl)methanol dihydrochloride]	0.57 nM	85 nM	1.5 nM
Cc1cnn(-c2ccc3ccc(-c4nnc5ccc([C@@H](N6CC[C@H](N)C6)C(F)(F)F)cn45)nc3c2C)c1 [Example 190, (S)-1-((R)-2,2,2-trifluoro-1-(3-(8-methyl-7-(4-methyl-1H-pyrazol-1-yl)quinolin-2-yl)-[1,2,4]triazolo[4,3-a]pyridin-6-yl)ethyl)pyrrolidin-3-amine dihydrochloride]	1.03 nM	> 100 nM	1 nM
Cc1c(-c2cnn(C)c2)ccc2ccc(-c3nnc4ccc([C@@H](N5CC[C@H](N)C5)C(F)(F)F)cn34)nc12 [Example 191, (S)-1-((R)-2,2,2-trifluoro-1-(3-(8-methyl-7-(1-methyl-1H-pyrazol-4-yl)quinolin-2-yl)-[1,2,4]triazolo[4,3-a]pyridin-6-yl)ethyl)pyrrolidin-3-amine dihydrochloride]	0.2 nM	74 nM	0.2 nM
CC(C)Oc1cccc2ccc(-c3nnc4ccc([C@@H](N5CCC(N)(CO)C5)C(F)(F)F)cn34)nc12 (stereo partly drawn) [Example 197, (3-amino-1-((R)-2,2,2-trifluoro-1-(3-(8-isopropoxyquinolin-2-yl)-[1,2,4]triazolo[4,3-a]pyridin-6-yl)ethyl)pyrrolidin-3-yl)methanol dihydrochloride]	0.3 nM	150 nM	0.9 nM
Cc1cc(-c2cc3nc(-c4nnc5ccc([C@@H](N6CC[C@H](N)C6)C(F)(F)F)cn45)ccc3cc2F)n(C)n1 [Example 204, (3 S)-1-((1R)-1-(3-(7-(1,3-dimethyl-1H-pyrazol-5-yl)-6-fluoroquinolin-2-yl)-[1,2,4]triazolo[4,3-a]pyridin-6-yl)-2,2,2-trifluoroethyl)pyrrolidin-3-amine dihydrochloride]	0.48 nM	> 1000 nM	3 nM
N[C@H]1CCN([C@H](c2ccc3nnc(-c4ccc5cccc(O)c5n4)n3c2)C(F)(F)F)C1 [Example 208, 2-(6-((R)-1-((S)-3-aminopyrrolidin-1-yl)-2,2,2-trifluoroethyl)-[1,2,4]triazolo[4,3-a]pyridin-3-yl)quinolin-8-ol dihydrochloride]	0.41 nM	> 1000 nM	2.5 nM
Cc1c(C(=O)NC(C)C)ccc2ccc(-c3nnc4ccc([C@@H](N5CC[C@H](N)C5)C(F)(F)F)cn34)nc12 [Example 209, 2-(6-((R)-1-((S)-3-aminopyrrolidin-1-yl)-2,2,2-trifluoroethyl)-[1,2,4]triazolo[4,3-a]pyridin-3-yl)-N-isopropyl-8-methylquinoline-7-carboxamide]	0.55 nM	176 nM	0.6 nM
COc1cc2nc(-c3nnc4ccc([C@@H](N5C[C@@H](N)[C@@H](F)C5)C(F)(F)F)cn34)ccc2cc1F [Example 210, (3R,4S)-4-fluoro-1-((R)-2,2,2-trifluoro-1-(3-(6-fluoro-7-methoxyquinolin-2-yl)-[1,2,4]triazolo[4,3-a]pyridin-6-yl)ethyl)pyrrolidin-3-amine dihydrochloride]	> 100 nM	> 1000 nM	> 100 nM
COc1cc2nc(-c3nnc4ccc([C@@H](N5C[C@@H](N)[C@H](F)C5)C(F)(F)F)cn34)ccc2cc1F [Example 211, (3R,4R)-4-fluoro-1-((R)-2,2,2-trifluoro-1-(3-(6-fluoro-7-methoxyquinolin-2-yl)-[1,2,4]triazolo[4,3-a]pyridin-6-yl)ethyl)pyrrolidin-3-amine dihydrochloride]	0.52 nM	645 nM	4 nM
Cc1cc(-c2ccc3ccc(-c4nnc5ccc([C@@H](N6CC[C@H](N)C6)C(F)(F)F)cn45)nc3c2C)n(C)n1 [Example 213, (3S)-1-((1R)-1-(3-(7-(1,3-dimethyl-1H-pyrazol-5-yl)-8-methylquinolin-2-yl)-[1,2,4]triazolo[4,3-a]pyridin-6-yl)-2,2,2-trifluoroethyl)pyrrolidin-3-amine]	0.64 nM	> 1000 nM	8 nM

Stronger by IC50 (PIM-1), values ahead:

IC50 (PIM-1)	IC50 [1]	IC50 (recombinant rat PIM-3)	SMILES
0.17 nM	80 nM	0.5 nM	CC1(COc2cccc3ccc(-c4nnc5ccc([C@@H](N6CC[C@H](N)C6)C(F)(F)F)cn45)nc23)COC1 [Example 192, (S)-1-((R)-2,2,2-trifluoro-1-(3-(8-(3-methyloxetan-3-yl)methoxy)quinolin-2-yl)-[1,2,4]triazolo[4,3-a]pyridin-6-yl)ethyl)pyrrolidin-3-amine diformate]
0.14 nM	123 nM	0.2 nM	CC1(COc2ccc3ccc(-c4nnc5ccc([C@@H](N6CC[C@H](N)C6)C(F)(F)F)cn45)nc3c2)COC1 [Example 198, (S)-1-((R)-2,2,2-trifluoro-1-(3-(7-((3-methyloxetan-3-yl)methoxy)quinolin-2-yl)-[1,2,4]triazolo[4,3-a]pyridin-6-yl)ethyl)pyrrolidin-3-amine diformate]
0.14 nM	244 nM	0.2 nM	Cc1nn(C)cc1-c1cc2nc(-c3nnc4ccc([C@@H](N5CC[C@H](N)C5)C(F)(F)F)cn34)ccc2cc1F [Example 205, (3 S)-1-((1R)-1-(3-(7-(1,3-dimethyl-1H-pyrazol-4-yl)-6-fluoroquinolin-2-yl)-[1,2,4]triazolo[4,3-a]pyridin-6-yl)-2,2,2-trifluoroethyl)pyrrolidin-3-amine dihydrochloride]
0.09 nM	55 nM	0.1 nM	Cc1c(-c2cc3nc(-c4nnc5ccc([C@@H](N6CC[C@H](N)C6)C(F)(F)F)cn45)ccc3cc2F)cnn1C [Example 206, (3 S)-1-((1R)-1-(3-(7-(1,5-dimethyl-1H-pyrazol-4-yl)-6-fluoroquinolin-2-yl)-[1,2,4]triazolo[4,3-a]pyridin-6-yl)-2,2,2-trifluoroethyl)pyrrolidin-3-amine dihydrochloride]
0.14 nM	72 nM	0.3 nM	CO[C@@H](C)COc1cccc2ccc(-c3nnc4ccc([C@@H](N5CC[C@H](N)C5)C(F)(F)F)cn34)nc12 [Example 212, (S)-1-((R)-2,2,2-trifluoro-1-(3-(8-((S)-2-methoxypropoxy)quinolin-2-yl)-[1,2,4]triazolo[4,3-a]pyridin-6-yl)ethyl)pyrrolidin-3-amine dihydrochloride]
